The source of these data is patent US20200190073A1, “SUBSTITUTED SUCCINIMIDE DERIVATIVES AS PESTICIDES” (BASF SE, priority 2017, published 2020).

Where two headings read alike, the source gives them in different places.

What all share (assay type): in vivo
Test [1] concerns Diamond back moth (Plutella xylostella). As to the kind of experiment: CE.6 Diamond back moth, contact activity, comparative test. To be noted: read-out: % mortality in comparison to untreated controls. Here is the method: (§1) The tables show % mortality in comparison to untreated controls.
CE.6 Diamond Back Moth (Plutella xylostella)
Ten third-instar larvae are sprayed with 1 ml test solution and introduce to untreated leaves held petri dished lined with moist filter paper. Mortality is recorded 24, 72, and 120 hours after treatment.

The subject of test [2] is Cowpea Aphid (Aphis Craccivora). Kind of test: CE.1 Cowpea aphid, comparative test. To be noted: read-out: % mortality in comparison to untreated controls. The procedure: as §1
CE.1 Cowpea Aphid (Aphis Craccivora)
Potted cowpea plants colonized with approximately 100-150 aphids of various stages were sprayed after the pest population has been recorded. Population reduction was assessed after 24, 72, and 120 hours.

The subject of test [3] is Rice Brown Plant Hopper (Nilaparvata lugens). Kind of test: CE.2 Rice brown plant hopper, comparative test. To be noted: 10 ppm, after 72 hours, read-out: % mortality in comparison to untreated controls. The procedure: as §1
CE.2 Rice Brown Plant Hopper (Nilaparvata lugens)
Rice seedlings were cleaned and washed 24 hours before spraying. The active compounds were formulated in 50:50 acetone:water (vol:vol) and 0.1% vol/vol surfactant (EL 620) was added. Potted rice seedlings were sprayed with 5 ml test solution, air dried, placed in cages and inoculated with 10 adults. Treated rice plants were kept at about 28-29° C. and relative humidity of about 50-60%. Percent mortality was recorded after 72 hours.

Test [4] concerns Rice Green Leafhopper (Nephotettix virescens). As to the kind of experiment: CE.5 Rice green leafhopper, comparative test. Particulars: read-out: % mortality in comparison to untreated controls. Here is the method: as §1
CE.5 Rice Green Leafhopper (Nephotettix virescens)
Rice seedlings were cleaned and washed 24 hours before spraying. The active compounds were formulated in 50:50 acetone:water (vol:vol), and 0.1% vol/vol surfactant (EL 620) was added. Potted rice seedlings were sprayed with 5 ml test solution, air dried, placed in cages and inoculated with 10 adults. Treated rice plants were kept at about 28-29° C. and relative humidity of about 50-60%. Percent mortality was recorded after 72 hours.

Test [5] deals with Diamond back moth (Plutella xylostella). As to the kind of experiment: B.1 Diamond back moth, cabbage leaf dip. To be noted: foliar, 72 h, read-out: mortality in comparison with untreated controls. Here is the method: B.1 Diamond back moth (Plutella xylostella)
The active compound was dissolved at the desired concentration in a mixture of 1:1 (vol:vol) distilled water:acetone. Surfactant (Kinetic HV) was added at a rate of 0.01% (vol/vol). The test solution was prepared at the day of use.
Leaves of cabbage were dipped in test solution and air-dried. Treated leaves were placed in petri dishes lined with moist filter paper and inoculated with ten 3rd instar larvae. Mortality was recorded 72 hours after treatment. Feeding damages were also recorded using a scale of 0-100%.

In test [6] the test system is Green Peach Aphid (Myzus persicae). As to the kind of experiment: B.2 Green peach aphid, artificial diet, systemic. Particulars: 72 h, read-out: mortality in comparison with untreated controls. An excerpt:
B.2 Green Peach Aphid (Myzus persicae)
For evaluating control of green peach aphid (Myzus persicae) through systemic means the test unit consisted of 96-well-microtiter plates containing liquid artificial diet under an artificial mem brane.
The compounds were formulated using a solution containing 75% v/v water and 25% v/v DMSO. Different concentrations of formulated compounds were pipetted into the aphid diet, using a custom built pipetter, at two replications.
After application, 5-8 adult aphids were placed on the artificial membrane inside the microtiter plate wells. The aphids were then allowed to suck on the treated aphid diet and incubated at about 23±1° C. and about 50±5% relative humidity for 3 days. Aphid mortality and fecundity was then visually assessed.

In test [7] the test system is Vetch Aphid (Megoura viciae). As to the kind of experiment: B.3 Vetch aphid, broad bean leaf disks. Particulars: foliar, 120 h, read-out: mortality in comparison with untreated controls. The procedure: B.3 Vetch Aphid (Megoura viciae)
For evaluating control of vetch aphid (Megoura viciae) through contact or systemic means the test unit consisted of 24-well-microtiter plates containing broad bean leaf disks.
The compounds were formulated using a solution containing 75% v/v water and 25% v/v DMSO. Different concentrations of formulated compounds were sprayed onto the leaf disks at 2.5 μl, using a custom built micro atomizer, at two replications.
After application, the leaf disks were air-dried and 5-8 adult aphids placed on the leaf disks inside the microtiter plate wells. The aphids were then allowed to suck on the treated leaf disks and incubated at about 23±1° C. and about 50±5% relative humidity for 5 days. Aphid mortality and fecundity was then visually assessed.

The subject of test [8] is Tobacco Budworm (Heliothis virescens). Kind of test: B.4 Tobacco budworm, insect diet with eggs. Particulars: 120 h, read-out: mortality in comparison with untreated controls. Here is the method: B.4 Tobacco Budworm (Heliothis virescens)
For evaluating control of tobacco budworm (Heliothis virescens) the test unit consisted of 96-well-microtiter plates containing an insect diet and 15-25 H. virescens eggs.
The compounds were formulated using a solution containing 75% v/v water and 25% v/v DMSO. Different concentrations of formulated compounds were sprayed onto the insect diet at 10 μl, using a custom built micro atomizer, at two replications.
After application, microtiter plates were incubated at about 28±1° C. and about 80±5% relative humidity for 5 days. Egg and larval mortality was then visually assessed.

The test system of test [9] is Boll Weevil (Anthonomus grandis). As to the kind of experiment: B.5 Boll weevil, insect diet with eggs. To be noted: 120 h, read-out: mortality in comparison with untreated controls. Here is the method:
B.5 Boll Weevil (Anthonomus grandis)
For evaluating control of boll weevil (Anthonomus grandis) the test unit consisted of 96-well-microtiter plates containing an insect diet and 5-10 A. grandis eggs.
The compounds were formulated using a solution containing 75% v/v water and 25% v/v DMSO. Different concentrations of formulated compounds were sprayed onto the insect diet at 5 μl, using a custom built micro atomizer, at two replications.
After application, microtiter plates were incubated at about 25±1° C. and about 75±5% relative humidity for 5 days. Egg and larval mortality was then visually assessed.

In test [10] the test system is Orchid Thrips (Dichromothrips Corbetti). Kind of test: B.7 Orchid thrips, floral immersion. To be noted: Thrips, 72 h, read-out: mortality in comparison with untreated controls. Here is the method:
B.7 Orchid Thrips (Dichromothrips Corbetti)
Dichromothrips corbetti adults used for bioassay were obtained from a colony maintained continuously under laboratory conditions. For testing purposes, the test compound is diluted in a 1:1 mixture of acetone:water (vol:vol), plus Kinetic HV at a rate of 0.01% v/v.
Thrips potency of each compound was evaluated by using a floral-immersion technique. All petals of individual, intact orchid flowers were dipped into treatment solution and allowed to dry in Petri dishes. Treated petals were placed into individual re-sealable plastic along with about 20 adult thrips. All test arenas were held under continuous light and a temperature of about 28° C. for duration of the assay. After 3 days, the numbers of live thrips were counted on each petal. The percent mortality was recorded 72 hours after treatment.

Test [11] deals with Rice Green Leafhopper (Nephotettix virescens). As to the kind of experiment: B.8 Rice green leafhopper, sprayed rice seedlings. Particulars: 72 h, read-out: mortality in comparison with untreated controls. Here is the method:
B.8 Rice Green Leafhopper (Nephotettix virescens)
Rice seedlings were cleaned and washed 24 hours before spraying. The active compounds were formulated in 1:1 acetone:water (vol:vol), and 0.01% vol/vol surfactant (Kinetic HV) was added. Potted rice seedlings were sprayed with 5-6 ml test solution, air dried, covered with Mylar cages and inoculated with 10 adults. Treated rice plants were kept at about 28-29° C. and relative humidity of about 50-60%. Percent mortality was recorded after 72 hours.

Test [12] concerns Red Spider Mite (Tetranychus kanzawai). Kind of test: B.9 Red spider mite, sprayed cowpea beans. To be noted: 72 h, read-out: mortality in comparison with untreated controls. Here is the method: B.9 Red Spider Mite (Tetranychus kanzawai)
The active compound was dissolved at the desired concentration in a mixture of 1:1 (vol:vol) distilled water:acetone. Add surfactant (Kinetic HV) was added at a rate of 0.01% (vol/vol).The test solution was prepared at the day of use.
Potted cowpea beans of 4-5 days of age were cleaned with tap water and sprayed with 1-2 ml of the test solution using air driven hand atomizer. The treated plants were allowed to air dry and afterwards inoculated with 30 or more mites by clipping a cassava leaf section from rearing population. Treated plants were placed inside a holding room at about 25-27° C. and about 50-60% relative humidity. Percent mortality was assessed 72 hours after treatment.

The test system of test [13] is Green Soldier Stink Bug (Nezara viridula). Kind of test: B.11 Green soldier stink bug, sprayed soybean pods. Particulars: 120 h, read-out: mortality in comparison with untreated controls. Here is the method:
B.11 Green Soldier Stink Bug (Nezara viridula)
The active compound was dissolved at the desired concentration in a mixture of 1:1 (vol:vol) distilled water:acetone. Surfactant (Kinetic HV) was added at a rate of 0.01% (vol/vol). The test solution was prepared at the day of use. Soybean pods were placed in glass Petri dishes lined with moist filter paper and inoculated with ten late 3rd instar N. viridula. Using a hand atomizer, approximately 2 ml solution is sprayed into each Petri dish. Assay arenas were kept at about 25° C. Percent mortality was recorded after 5 days.

Test [14] concerns Neotropical Brown Stink Bug (Euschistus heros). Kind of test: B.12 Neotropical brown stink bug, dipped pole bean. To be noted: 120 h, read-out: mortality in comparison with untreated controls. Here is the method:
B.12 Neotropical Brown Stink Bug (Euschistus heros)
For evaluating control of Euschistus heros through contact the test unit consisted of 100 ml disposable plastic beakers with transparent lids.
The compounds were formulated using a solution containing 50% water and 50% acetone. 50 ml of different concentrations of formulated compounds or mixtures were prepared in a glass petri dish and used for dipping three 6 cm sections of fresh pole bean. Each treatment was replicated eight times.
After application, the pole bean sections were air-dried and 5 adult E. heros placed in each beaker. The E. heros were then allowed to suck on the treated pole bean sections and incubated at 23±1° C., 50±5% RH for 5 days. E. heros mortality was then visually assessed.

Regarding `CN1CCC(NC(=O)c2ccc(C3=NOC(c4cc(Cl)c(F)c(Cl)c4)(C(F)(F)F)C3)c3c2CCC3)C1=O` (stereo not shown) [Tab. 126, A-9 of WO 2015128358, reference compound], in test [1], the mortality at 0.1 ppm came out at 0%.
As for `Cc1cc(C2=NSC(c3cc(Cl)cc(Cl)c3)(C(F)(F)F)C2)ccc1C(=O)NC1CCN(C)C1=O` (stereo not shown) [No. 2-201 of WO 2013/092943], the mortality at 300 ppm in [2] (at 300 ppm, sprayed cowpea plants) was determined as 0%. The mortality at 10 ppm in test [3] came out at 0%. In addition, in test [4] (3 ppm, after 72 hours), the mortality at 3 ppm stood at 0%.
For `CCN1C(=O)C[C@@H](NC(=O)c2ccc(C3=NO[C@@](c4cc(Cl)c(F)c(Cl)c4)(C(F)(F)F)C3)cc2Cl)C1=O` [Compound I-1-21], the mortality at 300 ppm in test [5], in [10], in [11], in [12] and in [13] was > 75% in each case. The mortality at 2500 ppm in test [6], in [7], in test [8] and in test [9] was > 75% each time. For the same molecule, in [1], the mortality at 0.1 ppm amounted to 97%.
As for `Cc1cc(C2=NOC(c3cc(Cl)c(F)c(Cl)c3)(C(F)(F)F)C2)ccc1C(=O)N[C@@H]1CC(=O)N(C)C1=O` (stereo partly shown) [Compound I-1-27], the mortality at 300 ppm in [5], in test [10], in [11], in [12] and in test [13] was > 75% in each case. Also, the mortality at 2500 ppm in test [6], in test [7], in [8] and in [9] was > 75% in each case. Also, the mortality at 10 ppm in test [2] is 93%. In addition, the mortality at 3 ppm in test [4] (72 h) worked out at 83%. Moreover, in test [1], the mortality at 0.1 ppm is 100%.
In the case of `O=C(N[C@@H]1CC(=O)N(C2CC2)C1=O)c1ccc(C2=NO[C@@](c3cc(Cl)c(F)c(Cl)c3)(C(F)(F)F)C2)cc1Cl` [Compound I-1-25, 2-Chloro-N-[(3R)-1-cyclopropyl-2,5-dioxo-pyrrolidin-3-yl]-4-[(5S)-5-(3,5-dichloro-4-fluoro-phenyl)-5-(trifluoromethyl)-4H-isoxazol-3-yl]benzamide], the mortality at 300 ppm in [5], in test [10], in test [11], in test [12] and in test [13] was > 75% in each case. Moreover, the mortality at 2500 ppm in test [6], in [7], in test [8] and in test [9] was > 75% in each case. The mortality at 500 ppm in test [14] was > 75%.
With `CCN1CCC(NC(=O)c2ccc(C3=NOC(c4cc(Cl)c(F)c(Cl)c4)(C(F)(F)F)C3)c3c2CCC3)C1=O` (stereo not shown) [Tab. 127, A-9 of WO 2015128358, reference compound], the mortality at 0.1 ppm in test [1] worked out at 0%.
Take `Cc1cc(C2=NOC(c3cc(Cl)cc(Cl)c3)(C(F)(F)F)C2)ccc1C(=O)N[C@@H]1CC(=O)N(C)C1=O` (stereo partly shown) [Compound I-1-28]: the mortality at 300 ppm in test [5], in test [10], in [11], in test [12] and in test [13] was > 75% throughout. The mortality at 2500 ppm in test [6], in test [7], in test [8] and in test [9] was > 75% throughout. The mortality at 500 ppm in test [14] was > 75%. Besides, in test [2], the mortality at 10 ppm was 50%. The mortality at 3 ppm in test [4] (72 h) was found to be 79%.
